In US9459254B2, “Method for determining sensitivity to an anticancer agent” (KEIO UNIVERSITY, priority 2009, dated 2016):

What was measured:
HCT116 cells [1] = assay: SELDI-TOF MS intracellular protein expression after drug exposure, HCT116; type: cell-based, human
Description: (§1) The 5-FU+SN-38 combination concentration was adjusted to the following four levels: 2 μM+10 nM, 2 μM+100 nM, 100 μM+10 nM, and 100 μM+100 nM, the 5-FU concentration (exposure to single agent) was adjusted to 2 μM and 100 μM, and the SN-38 concentration (exposure to single agent) was adjusted to 10 nM and 100 nM. In addition, the exposure test was conducted at a drug-free concentration (control). That is, nine concentrations in total were employed. Drug exposure time was adjusted to the following four periods of time: 0 hour (just before exposure), 4 hours, 24 hours, and 48 hours. After completion of exposure, cell count was performed, and intracellular proteins were extracted.
(§2) The medium was removed from the dish and washed thrice with ice-cooled PBS. The cells on the dish was collected by scraping with a rubber policeman. The thus-obtained cell suspension was transferred to a 1.5-mL microtube. The cell suspension was centrifuged at 4° C. and 1,200×g for 10 minutes, and the cells were recovered. After removal of the supernatant, a cell lysis buffer (9 mol/L urea, 2% CHAPS, 1 mM DTT, protease-inhibitor cocktail (Sigma)) was added in a volume of 200 μL with respect to 10,000,000 cells. The liquid was subjected to untrasonic treatment under cooling with ice. The thus-treated product was centrifuged at 4° C. and 16,000×g for 20 minutes, and the supernatant was quickly frozen with liquid nitrogen. The frozen product was stored at −80° C. before analysis. An aliquot of the supernatant was subjected to protein quantification (DC Protein Assay Kit, Bio-Rad).
(§3) The protein sample was mixed with a cell lysis buffer (excluding protease inhibitor), to thereby adjust the protein concentration to 2.5 mg/mL. The liquid was further mixed with a dilution/washing buffer (pH: 4.5, 50 mM sodium acetate buffer) (hereinafter referred to simply as “buffer”), to a protein concentration of 0.5 mg/mL. The thus-prepared sample (100 μL) was applied to spots of a cation-exchange ProteinChip array (CM10, Bio-Rad) which had been conditioned in advance with the same buffer. […]

DLD-1 cells [2] = assay: SELDI-TOF MS intracellular protein expression after drug exposure, DLD-1; type: cell-based, human
Description: as §1, §2, §3

DLD-1 cells [3] = assay: MTS assay cell viability after drug exposure, DLD-1
Description: (§4) Two colorectal cancer lines (HCT116 and DLD-1, obtained from ECACC) were exposed to a drug, and 48 hours and 72 hours after drug exposure, cell viability was determined by means of an MTS assay (CellTiter96™ AQueous One Solution Cell Proliferation Assay, Promega). Drug exposure conditions were as follows. 5-FU (single agent) was used at the following 11 concentrations: control (0 μM), 0.001 μM, 0.01 μM, 0.1 μM, 1 μM, 3 μM, 10 μM, 30 μM, 100 μM, 1,000 μM, and 10,000 μM. SN-38 (single agent) was used at the following 11 concentrations; control (0 nM), 0.001 nM, 0.01 nM, 0.1 nM, 0.3 nM, 1 nM, 3 nM, 10 nM, 30 nM, 100 nM, and 1,000 nM. In the case of 5-FU/SN-38 combination, 5-FU was used at 2 μM, 10 μM, 30 μM, and 100 μM (4 concentrations), and SN-38 was used at 0.001 nM, 0.01 nM, 0.1 nM, 0.3 nM, 1 nM, 3 nM, 10 nM, 30 nM, 100 nM, and 1,000 nM (10 concentrations); i.e., 40 concentrations were employed. […]
(§5) Sensitivity analysis was performed from viability data calculated from MTS assay results. The presence or absence of combined effect was determined through comparison of viability obtained by exposure to a combination with that obtained by exposure to a single agent at the same concentration as employed at the exposure to the combination.

HCT116 cells [4] = assay: MTS assay cell viability after drug exposure, HCT116
Description: as §4, §5

[5] = compared with CPT-11; cited from earlier work

| SMILES | intracellular protein A level (m/z 16,450 to 16,620) after drug exposure (HCT116 cells [1]) | intracellular protein A level after drug exposure (DLD-1 cells [2]) | cell viability (DLD-1 cells [3]; DLD-1, 100 μM 5-FU, 48 hours) | cell viability (HCT116 cells [4]; HCT116, 100 μM 5-FU, 48 hours) | intracellular protein B level (m/z 22,080 to 22,310) after drug exposure (HCT116 cells [1]) | intracellular protein B level after drug exposure (DLD-1 cells [2]) | anti-tumor activity relative to that of CPT-11 [5] | cell viability (DLD-1 cells [3]; DLD-1, 100 nM SN-38, 72 hours) | cell viability (HCT116 cells [4]; HCT116, 100 nM SN-38, 72 hours) |
| --- | --- | --- | --- | --- | --- | --- | --- | --- | --- |
| O=c1[nH]cc(F)c(=O)[nH]1 [5-FU, Fluorouracil] | protein level increase | no significant difference | about 49% | about 24% |  |  |  |  |  |
| CCc1c2c(nc3ccc(O)cc13)-c1cc3c(c(=O)n1C2)COC(=O)[C@]3(O)CC [SN-38, 7-ethyl-10-hydroxycamptothecin] | protein level increase | no significant difference |  |  | protein level increase | no significant difference | about 100 times to some thousand times | about 76% | about 24% |
